In brackets after ≈: the same amount, converted by molar mass. Like-named read-outs stand apart in the source and are kept apart here.
What was measured:
[1] = system: A. baumannii clinical isolates; assay: Broth microdilution MIC, A. baumannii clinical isolates; assay type: cell-based, Acinetobacter baumannii; conditions: for CLSI % Res: for MEM-ANT3310 % at ≥16 µg/mL; for MIC90: read-out: MIC90
Protocol: (§1) All isolates were randomly selected from the frozen culture collection of IHMA collected in 2018 and 2019. Matrix-assisted laser desorption ionization-time of flight mass spectrometry was used to confirm the identity of the organisms tested (Bruker Daltonics, Bremen, Germany).
(§2) MICs for all antimicrobial agents were determined at IHMA by broth microdilution in accordance with both CLSI ([17]) and EUCAST ([18]) guidelines. Microtiter panels were prepared by IHMA and stored at −70°C in cation-adjusted Mueller Hinton broth (CAMHB) (Becton Dickinson). Iron-depleted CAMHB was used to test cefiderocol. Panels containing ANT3310 were prepared fresh on the day of testing. […] MIC values corresponded to the first well with no visible growth. Quality control testing was performed on each day of testing with E. coli ATCC 25922, P. aeruginosa ATCC 27853, K. pneumoniae ATCC 700603 and BAA 1705, and A. baumannii NCTC 13304. MICs were interpreted using 2023 CLSI ([17]) and EUCAST ([18]) BPs.

[2] = system: OXA-producing Enterobacterales (OXA-CRE); assay: organism not typed; assay type: cell-based
Protocol: as §1, §2

[3] = system: KPC-producing Enterobacterales (KPC-CRE); assay: organism not typed; assay type: cell-based
Protocol: as §1, §2

[4] = system: P. aeruginosa clinical isolates; assay: Broth microdilution MIC, P. aeruginosa clinical isolates; assay type: cell-based, Pseudomonas aeruginosa; conditions: 502 P. aeruginosa, 2019 global collection
Protocol: as §1, §2

[5] = system: carbapenem-resistant Acinetobacter baumannii (CRAB) clinical isolates; assay: Broth microdilution MIC, CRAB isolates; assay type: cell-based; conditions: for Number of isolates inhibited at MIC of 0.25 µg/mL / Number of isolates inhibited at MIC of 0.5 µg/mL / Number of isolates inhibited at MIC of 1 µg/mL / Number of isolates inhibited at MIC of 2 µg/mL / Number of isolates inhibited at MIC of 4 µg/mL / Number of isolates inhibited at MIC of 8 µg/mL / Number of isolates inhibited at MIC of 16 µg/mL / Number of isolates inhibited at MIC of 32 µg/mL / Number of isolates inhibited at MIC of >32 µg/mL / Number of isolates inhibited at MIC of ≤0.125 µg/mL / MIC50 / MIC90: CRAB (MEM MICs >4 µg/mL); for CLSI % Res / CLSI % Sus: CRAB, CLSI BP; for CLSI % Res: for MEM-ANT3310 % at ≥16 µg/mL; for CLSI % Sus: for MEM-ANT3310 % inhibited at ≤8 µg/mL; for MIC90: read-out: MIC90
Protocol: as §1, §2

[6] = 2018 Global collection, All A. baumannii, N 500
[7] = 2019 Global collection, All A. baumannii, N 405
[8] = 252 OXA-producing Enterobacterales, EUCAST BP
[9] = 180 KPC-producing Enterobacterales, EUCAST BP

Q: Which “Number of isolates inhibited at MIC of 0.25 µg/mL” value [1, 6] does the source give for CC(C)(O/N=C(\C(=O)N[C@@H]1C(=O)N2C(C(=O)[O-])=C(C[N+]3(CCNC(=O)c4ccc(O)c(O)c4Cl)CCCC3)CS[C@H]12)c1csc(N)n1)C(=O)O [Cefiderocol, cefiderocol] here?
A: 83

Q: What about the “Number of isolates inhibited at MIC of 0.5 µg/mL” value [1, 6] of the same compound?
A: 111

Q: And the “Number of isolates inhibited at MIC of 1 µg/mL” value [1, 6]?
A: 78

Q: And the “Number of isolates inhibited at MIC of 2 µg/mL” value [1, 6]?
A: 52

Q: What about the “Number of isolates inhibited at MIC of 4 µg/mL” value [1, 6] of the same compound?
A: 24

Q: And the “Number of isolates inhibited at MIC of 8 µg/mL” value [1, 6]?
A: 3

Q: And the “Number of isolates inhibited at MIC of 16 µg/mL” value [1, 6]?
A: 3

Q: What about the “Number of isolates inhibited at MIC of 32 µg/mL” value [1, 6] of the same compound?
A: 2

Q: What about the “Number of isolates inhibited at MIC of >32 µg/mL” value [1, 6] of the same compound?
A: 21

Q: What about the “Number of isolates inhibited at MIC of ≤0.125 µg/mL” value [1, 6] of the same compound?
A: 123

Q: And the “CLSI % Res” value ([1]; 2018 Global collection, All A. baumannii, N 500, CLSI BP)?
A: 10.6%

Q: What about the MIC50 [1, 7] of the same compound?
A: 0.5 µg/mL (≈ 0.665 µM)

Q: What about the “Number of isolates inhibited at MIC of 0.25 µg/mL” value [1, 7] of the same compound?
A: 72

Q: And the “Number of isolates inhibited at MIC of 0.5 µg/mL” value [1, 7]?
A: 99

Q: And the “Number of isolates inhibited at MIC of 1 µg/mL” value [1, 7]?
A: 64

Q: And the “Number of isolates inhibited at MIC of 2 µg/mL” value [1, 7]?
A: 35

Q: And the “Number of isolates inhibited at MIC of 4 µg/mL” value [1, 7]?
A: 19

Q: What about the “Number of isolates inhibited at MIC of 8 µg/mL” value [1, 7] of the same compound?
A: 12

Q: What about the “Number of isolates inhibited at MIC of 16 µg/mL” value [1, 7] of the same compound?
A: 8

Q: What about the “Number of isolates inhibited at MIC of 32 µg/mL” value [1, 7] of the same compound?
A: 2

Q: And the “Number of isolates inhibited at MIC of >32 µg/mL” value [1, 7]?
A: 18

Q: What about the “Number of isolates inhibited at MIC of ≤0.125 µg/mL” value [1, 7] of the same compound?
A: 76

Q: And the “CLSI % Res” value ([1]; 2019 Global collection, All A. baumannii, N 405, CLSI BP)?
A: 14.6%

Q: What about the “CLSI % Sus” value ([1]; 2019 Global collection, All A. baumannii, N 405, CLSI BP, for MEM-ANT3310 % inhibited at ≤8 µg/mL) of the same compound?
A: 76.8%

Q: What about the MIC50 ([1]; Acinetobacter baumannii, 2018 Global collection, All A. baumannii, N 500, read-out: MIC50) of the same compound?
A: 0.5 µg/mL (≈ 0.665 µM)

Q: What about the MIC90 ([1]; Acinetobacter baumannii, 2018 Global collection, All A. baumannii, N 500) of the same compound?
A: 4 µg/mL (≈ 5.32 µM)

Q: What about the MIC90 ([1]; Acinetobacter baumannii, 2019 Global collection, All A. baumannii, N 405) of the same compound?
A: 4 µg/mL (≈ 5.32 µM)

Q: And the MIC90 ([1]; Acinetobacter baumannii, A. baumannii, one or both of the 2018/2019 collections)?
A: 4 µg/mL (≈ 5.32 µM)

Q: What about the MIC50 [2] of the same compound?
A: 1 µg/mL (≈ 1.33 µM)

Q: What about the MIC90 [2] of the same compound?
A: 4 µg/mL (≈ 5.32 µM)

Q: And the “CLSI % Res” value ([2]; 252 OXA-producing Enterobacterales, CLSI BP, for MEM-ANT3310 % at ≥16 µg/mL)?
A: 0.4%

Q: What about the “CLSI % Sus” value ([2]; 252 OXA-producing Enterobacterales, CLSI BP, for MEM-ANT3310 % inhibited at ≤8 µg/mL) of the same compound?
A: 98.8%

Q: And the “EUCAST % Res” value [2, 8]?
A: 21.8%

Q: And the “EUCAST % Sus” value [2, 8]?
A: 78.2%

Q: And the MIC50 [3]?
A: 1 µg/mL (≈ 1.33 µM)

Q: What about the MIC90 [3] of the same compound?
A: 4 µg/mL (≈ 5.32 µM)

Q: And the “CLSI % Res” value ([3]; 180 KPC-producing Enterobacterales, CLSI BP, for MEM-ANT3310 % at ≥16 µg/mL)?
A: 0%

Q: And the “CLSI % Sus” value ([3]; 180 KPC-producing Enterobacterales, CLSI BP, for MEM-ANT3310 % inhibited at ≤8 µg/mL)?
A: 100%

Q: What about the “EUCAST % Res” value [3, 9] of the same compound?
A: 27.2%

Q: And the “EUCAST % Sus” value [3, 9]?
A: 72.8%

Q: What about the “Number of isolates inhibited at MIC of 0.25 µg/mL” value [4] of the same compound?
A: 125

Q: What about the “Number of isolates inhibited at MIC of 0.5 µg/mL” value [4] of the same compound?
A: 92

Q: What about the “Number of isolates inhibited at MIC of 1 µg/mL” value [4] of the same compound?
A: 33

Q: And the “Number of isolates inhibited at MIC of 2 µg/mL” value [4]?
A: 16

Q: And the “Number of isolates inhibited at MIC of 4 µg/mL” value [4]?
A: 7

Q: And the “Number of isolates inhibited at MIC of 8 µg/mL” value [4]?
A: 1

Q: And the “Number of isolates inhibited at MIC of 32 µg/mL” value [4]?
A: 1

Q: And the “Number of isolates inhibited at MIC of ≤0.125 µg/mL” value [4]?
A: 227

Q: What about the MIC50 ([4]; Pseudomonas aeruginosa, read-out: MIC50) of the same compound?
A: 0.25 µg/mL (≈ 0.332 µM)

Q: What about the MIC90 ([4]; Pseudomonas aeruginosa, read-out: MIC90) of the same compound?
A: 1 µg/mL (≈ 1.33 µM)

Q: What about the “Number of isolates inhibited at MIC of 0.25 µg/mL” value ([5]; 2018 Global collection, N 363) of the same compound?
A: 63

Q: And the “Number of isolates inhibited at MIC of 0.5 µg/mL” value ([5]; 2018 Global collection, N 363)?
A: 99

Q: And the “Number of isolates inhibited at MIC of 1 µg/mL” value ([5]; 2018 Global collection, N 363)?
A: 72

Q: What about the “Number of isolates inhibited at MIC of 2 µg/mL” value ([5]; 2018 Global collection, N 363) of the same compound?
A: 49

Q: And the “Number of isolates inhibited at MIC of 4 µg/mL” value ([5]; 2018 Global collection, N 363)?
A: 21

Q: And the “Number of isolates inhibited at MIC of 8 µg/mL” value ([5]; 2018 Global collection, N 363)?
A: 3

Q: And the “Number of isolates inhibited at MIC of 16 µg/mL” value ([5]; 2018 Global collection, N 363)?
A: 3

Q: And the “Number of isolates inhibited at MIC of 32 µg/mL” value ([5]; 2018 Global collection, N 363)?
A: 2

Q: And the “Number of isolates inhibited at MIC of >32 µg/mL” value ([5]; 2018 Global collection, N 363)?
A: 17

Q: And the “Number of isolates inhibited at MIC of ≤0.125 µg/mL” value ([5]; 2018 Global collection, N 363)?
A: 34

Q: What about the “CLSI % Res” value ([5]; 2018 Global collection, N 363) of the same compound?
A: 12.7%

Q: And the “CLSI % Sus” value ([5]; 2018 Global collection, N 363)?
A: 73.8%

Q: And the MIC50 ([5]; 2019 Global collection, N 340)?
A: 0.5 µg/mL (≈ 0.665 µM)

Q: What about the “Number of isolates inhibited at MIC of 0.25 µg/mL” value ([5]; 2019 Global collection, N 340) of the same compound?
A: 64

Q: What about the “Number of isolates inhibited at MIC of 0.5 µg/mL” value ([5]; 2019 Global collection, N 340) of the same compound?
A: 93

Q: And the “Number of isolates inhibited at MIC of 1 µg/mL” value ([5]; 2019 Global collection, N 340)?
A: 61

Q: What about the “Number of isolates inhibited at MIC of 2 µg/mL” value ([5]; 2019 Global collection, N 340) of the same compound?
A: 34

Q: And the “Number of isolates inhibited at MIC of 4 µg/mL” value ([5]; 2019 Global collection, N 340)?
A: 19

Q: What about the “Number of isolates inhibited at MIC of 8 µg/mL” value ([5]; 2019 Global collection, N 340) of the same compound?
A: 9

Q: What about the “Number of isolates inhibited at MIC of 16 µg/mL” value ([5]; 2019 Global collection, N 340) of the same compound?
A: 8

Q: What about the “Number of isolates inhibited at MIC of 32 µg/mL” value ([5]; 2019 Global collection, N 340) of the same compound?
A: 2

Q: And the “Number of isolates inhibited at MIC of >32 µg/mL” value ([5]; 2019 Global collection, N 340)?
A: 18

Q: What about the “Number of isolates inhibited at MIC of ≤0.125 µg/mL” value ([5]; 2019 Global collection, N 340) of the same compound?
A: 32

Q: What about the “CLSI % Res” value ([5]; 2019 Global collection, N 340) of the same compound?
A: 16.5%

Q: And the “CLSI % Sus” value ([5]; 2019 Global collection, N 340)?
A: 73.5%

Q: And the MIC50 ([5]; Acinetobacter baumannii, 2018 Global collection, N 363, read-out: MIC50)?
A: 0.5 µg/mL (≈ 0.665 µM)

Q: What about the MIC90 ([5]; Acinetobacter baumannii, 2018 Global collection, N 363) of the same compound?
A: 4 µg/mL (≈ 5.32 µM)

Q: And the MIC90 ([5]; Acinetobacter baumannii, 2019 Global collection, N 340)?
A: 8 µg/mL (≈ 10.6 µM)
